{"source": "paper PMC10761396", "about": "“Evaluation of new alternative methods for the identification of estrogenic, androgenic and steroidogenic effects: a comparative in vitro/in silico study” (Archives of Toxicology, 2023)", "key": {"ER": {"test_system": "ER", "parameters": "method as in Browne, et al (2015)", "conditions": "ref Browne, et al (2015), cited from earlier work; for ToxCast Pathway Model (AUC): as agonist where given, value above 0.1 = significant interaction"}, "AR": {"test_system": "AR", "conditions": "AR pathway model; ref Kleinstreuer et al (2017) 10.1021/acs.chemrestox.6b00347; cited from earlier work"}, "human (non-selective) ER": {"test_system": "human (non-selective) ER", "test": "ER radioligand ([3H]estradiol) receptor-binding assay", "conditions": "for inhibition of control specific binding to the ER: single-dose screening, 10 µM", "method": "The chemicals were tested for their ability to bind to different targets. […] Chemicals were incubated at 10 µM with cells overexpressing ER or AR for 24 h at 4°C, after which, the binding of the radiolabeled ligand ([^3H]estradiol for ER and [^3H]methyltrienolone for AR) was measured by liquid scintillation counting. An increase or decrease higher than 50% were considered to represent significant effects. Four chemicals were tested in additional incubations at several concentrations up to the maximum soluble concentration for IC50 or EC50 determination for the associated target. Receptor binding was calculated as a % inhibition of the binding of a radioactively labeled ligand specific for each target.\nEach test chemical was tested in a single assay in duplicate."}, "[1]": {"target": "T1, human recombinant CYP19A1 (Homo sapiens, UniProt P11511)", "T1 sequence (P11511 1-503)": "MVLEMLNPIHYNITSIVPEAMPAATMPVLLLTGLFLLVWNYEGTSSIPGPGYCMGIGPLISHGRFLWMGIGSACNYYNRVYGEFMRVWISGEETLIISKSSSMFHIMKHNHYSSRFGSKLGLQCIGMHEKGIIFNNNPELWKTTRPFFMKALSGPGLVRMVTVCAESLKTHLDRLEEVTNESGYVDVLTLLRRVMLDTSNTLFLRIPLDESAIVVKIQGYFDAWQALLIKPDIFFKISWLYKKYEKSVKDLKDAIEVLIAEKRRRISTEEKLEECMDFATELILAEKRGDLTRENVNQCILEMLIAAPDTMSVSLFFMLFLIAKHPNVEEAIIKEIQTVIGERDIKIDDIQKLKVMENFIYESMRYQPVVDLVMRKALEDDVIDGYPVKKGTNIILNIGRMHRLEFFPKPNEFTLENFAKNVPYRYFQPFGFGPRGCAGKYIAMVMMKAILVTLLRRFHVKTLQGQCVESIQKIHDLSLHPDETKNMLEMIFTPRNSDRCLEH", "test": "Recombinant enzyme aromatase activity inhibition assay", "type": "biochemical", "conditions": "follow-up dose–response assay", "protocol": "An aromatase inhibition assay was also included in the in vitro assay panel. This enzyme – otherwise known as CYP19A1 - is responsible for converting androgens into estrogens (Blakemore and Naftolin 2016; Bulun 2014); therefore, chemicals that inhibit aromatase activity can lead to reduced estrogen production, which can affect reproductive and developmental processes (Kragie 2002; Tiboni and Ponzano 2016).\nThe metabolite, estradiol, was measured by time-resolved fluorescence according to the method described previously (Ji et al. 2014). Enzyme inhibition was calculated as a % inhibition of control enzyme activity."}, "ERα [2]": {"target": "T2, ERα (Homo sapiens, UniProt P03372)", "T2 sequence (P03372 1-595)": "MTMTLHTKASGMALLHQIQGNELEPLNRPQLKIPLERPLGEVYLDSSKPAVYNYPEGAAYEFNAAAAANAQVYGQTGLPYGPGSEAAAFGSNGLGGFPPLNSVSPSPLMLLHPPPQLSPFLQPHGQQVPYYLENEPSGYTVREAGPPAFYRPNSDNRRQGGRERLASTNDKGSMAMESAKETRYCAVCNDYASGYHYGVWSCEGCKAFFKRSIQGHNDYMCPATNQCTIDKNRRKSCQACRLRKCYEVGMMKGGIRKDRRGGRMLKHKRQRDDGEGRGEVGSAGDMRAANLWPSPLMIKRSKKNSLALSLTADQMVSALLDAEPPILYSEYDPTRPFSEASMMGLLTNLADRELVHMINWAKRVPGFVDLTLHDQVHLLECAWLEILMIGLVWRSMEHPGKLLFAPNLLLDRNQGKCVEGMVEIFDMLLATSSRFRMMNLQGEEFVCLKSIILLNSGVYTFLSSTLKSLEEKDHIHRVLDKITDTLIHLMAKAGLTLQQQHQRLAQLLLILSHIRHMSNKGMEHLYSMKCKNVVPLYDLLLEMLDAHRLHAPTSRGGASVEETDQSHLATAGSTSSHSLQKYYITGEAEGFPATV", "test": "YES (Yeast oestrogen screen) assay, agonist and antagonist mode", "conditions": "YES agonist assay; duplicates in two independent experiments", "method": "The YES/YAS XL (Xtra Lyticase) assay kit from Xenometrix AG (Allschwil, Switzerland) was conducted according to the Supplier’s instructions.\nIn the YES assay, human ERα is integrated in the yeast (Saccharomyces cerevisiae) chromosome, and for the YAS assay human AR is integrated (Routledge and Sumpter 1996; Sohoni and Sumpter 1998). […] This enzyme then converts a yellow substrate to a purple metabolite, which can be measured colorimetrically.\nGrowing yeast cells stably transformed with either hERα (YES) or hAR (YAS) and a β-galactosidase reporter system were exposed to a range of concentrations of each test compound. […] The positive control chemicals for agonistic effects were 17-β estradiol for YES and 5α-dihydrotestosterone for YAS. […] A combination of a fixed concentration of positive control and a range of concentrations of each test chemical were tested. The cells were incubated with each treatment for 18 h at 31°C. The cells were lysed in the presence of the yellow β-galactosidase-substrate, chlorophenol red-β-D-galactopyranoside (CPRG). Yeast cell growth was assessed prior to addition of the lysis buffer by measuring the absorbance at 690 nm. The production of the red metabolite of CPRG was determined by measuring the absorbance at 570 nm. It was corrected for diffraction by cells and debris by a simultaneous measurement at 690 nm. The results were evaluated for estrogenic and androgenic agonistic and antagonistic activity, as well as for yeast growth inhibition or cytotoxicity.\nAn IR value ≥ IR10 in the YES or YAS agonist assay indicates an agonistic effect (IR10 is defined as the IR which is 10% of (IR max - IR solvent) above the IR solvent. An IR value ≤ IR50 in the YES or YAS antagonist assay indicates a possible antagonistic effect (IR50 is defined as 50% of (IR control - IR solvent), where the IR control is at the corresponding fixed concentration of agonist used: 3.3 × 10^-10 M 17-β estradiol and 3.3 × 10^-9 M 5α-dihydrotestosterone, respectively). […]"}, "ERα [3]": {"target": "T2, ERα", "test": "(anti-)ERα CALUX receptor transactivation assay", "type": "cell-based", "parameters": "expressed in transfected cells; host or cells: CALUX cells (U2-OS is named only for the cytotoxicity CALUX)", "protocol": "The human CALUX® assays were used to measure the impact of test compounds on estrogen and androgen pathways. […] Chemicals can activate (or inactivate, in the case of an antagonistic activity) a ligand-specific pathway by binding to the receptor (ER, AR), after which the receptor-ligand complex binds to specific DNA REs […], resulting in increased (or decreased) cellular expression of a marker protein (e.g., luciferase).\nChemicals were dissolved and diluted in DMSO. […] The cytotoxicity of each test chemical was assessed using the U2-OS based cytotoxicity CALUX bioassay. Concentrations causing >20% reduction of luminescence were considered cytotoxic. […] Luciferase production was quantified by measuring luminescence following addition of luciferin. For antagonist assays, a fixed concentration of receptor agonist was co-incubated with a range of concentrations of the test chemical. […] For the AR assays, dihydrotestosterone was the positive control for agonistic effects and flutamide was the positive control for antagonist effects.\nEach test chemical was tested in triplicates in two independent experiments."}}, "note": "pIC50, pKi: −log10 of the molar value.", "data": [{"compound": "CC(C)(C)CC(C)(C)c1ccc(O)cc1", "note": "[4-TO, 4-tert-octylphenol]", "values": [{"measurement": "ToxCast Pathway Model (AUC)", "setting": "ER", "result": 0.393}, {"measurement": "ToxCast Pathway Model interaction", "setting": "ER", "result": "significant interaction"}, {"measurement": "ToxCast Pathway Model (AUC)", "setting": "AR", "result": "AUC = 0.23 as agonist, then there is a significant interaction."}]}, {"compound": "O=c1c(-c2ccc(O)cc2)coc2cc(O)ccc12", "note": "[Daidzein, daidzein]", "values": [{"measurement": "inhibition of control specific binding to the ER", "setting": "human (non-selective) ER", "result": "more than 50%"}, {"measurement": "aromatase inhibition outcome", "setting": "[1]", "result": "lack of binding"}, {"measurement": "ToxCast Pathway Model (AUC)", "setting": "ER", "result": 0.44}, {"measurement": "ToxCast Pathway Model interaction", "setting": "ER", "result": "significant interaction"}, {"measurement": "ToxCast Pathway Model (AUC)", "setting": "AR", "result": "AUC = 0, then there is no significant interaction."}, {"measurement": "ER agonism in the YES assay", "setting": "ERα [2]", "result": "positive"}, {"measurement": "Lowest Effective Concentration (LEC), ER agonism", "setting": "ERα [3]", "result": 0.1, "unit": "µM"}]}, {"compound": "C[C@]12CCC(=O)C[C@@H]1CC[C@@H]1[C@@H]2CC[C@@]2(C)[C@H]1CC[C@]2(C)O", "note": "[Mestanolone, mestanolone, reference compound]", "values": [{"measurement": "ER binding outcome", "setting": "human (non-selective) ER", "result": "confirmed to bind to the ER"}, {"measurement": "pIC50", "setting": "human (non-selective) ER; follow-up dose–response assay", "result": 5.80}, {"measurement": "pKi", "setting": "human (non-selective) ER; follow-up dose–response assay", "result": 6.28}, {"measurement": "inhibition of control specific binding to the ER", "setting": "human (non-selective) ER", "result": "more than 50%"}, {"measurement": "aromatase inhibition outcome", "setting": "[1]", "result": "lack of binding"}, {"measurement": "ER agonism in the YES assay", "setting": "ERα [2]", "result": "positive"}, {"measurement": "Lowest Effective Concentration (LEC), ER agonism", "setting": "ERα [3]", "result": 0.028, "unit": "µM"}]}]}
